The first assay deals with HIF-2α transcriptional activity. The assay is described as follows: Hypoxia-responsive element-driven luciferase (HRE-Luc) assay. Particulars: 786-0 CCRCC cells stably expressing HRE-Luc, 24 hours treatment. Type of assay: cell-based, human. Here is the method: Screens for inhibitory activity of compounds described herein were performed using 786-0 CCRCC cells that stably express HRE-Luc: 5 copies of the hypoxia-responsive element (HRE) fused to the pGL3 luciferase reporter (Promega Corp, Madison Wis.). 786-0 cells are pVHL deficient and thus constitutively express HIF-2α independently of cellular oxygen tension (Maxwell, Wiesener et al. 1999). Since 786-0 cells lack HIF-1α, HRE-driven luciferase activity is primarily HIF-2α driven, and has been previously validated (Koh, Lemos et al. 2011). Cells were maintained at log phase growth in Dulbecco's […] (DMEM) with 10% FBS in a humidified incubator at 37° C. with 5% CO2. For screening assays, cells were seeded at a density of 4,000 cells in 50 μl of complete media/well in quadruplicate wells/point in a 96-well plate. 24 hours later, 50 μl of a 2× concentration of test compound was added to each well. Compounds were diluted from a 5-10 mM stock in DMSO and final concentrations of DMSO in each well in controls and treated wells were kept constant at ≤0.6% DMSO. After 24 hours' treatment, luciferase activity was measured using the Steady-Glo Luciferase assay system (Promega Corp) according to the manufacturer's protocol. Cell viability was measured in quadruplicate parallel wells using resazurin as recommended by the manufacturer (R&D systems, Minneapolis, Minn.). Data for luciferase and resazurin were normalized to DMSO treated controls (defining 100%) and wells containing assay reagent but no cells (defining 0%), and graphed using the log inhibitor versus normalized response option in Prism7 Graphpad software. Representative data determined using Steady-Glo luciferase and resazurin are shown in FIGS. 1A and 1B respectively, with error bars showing standard error of the mean (SEM).
The IC50 is the midpoint of a concentration-inhibition curve. Lower therefore signals greater potency. The compound `COc1ccc(-c2nnc(Nc3nc4c(Cl)nccc4[nH]3)o2)cc1` [KD022, N-(4-chloro-1H-imidazo[4,5-c]75yridine-2-yl)-5-(4-methoxyphenyl)-1,3,4-oxadiazol-2-amine] displayed an IC50 of 28.3 µM.

The assay is the same for the next values; noted with them: Homo sapiens; 786-0 CCRCC cells stably expressing HRE-Luc, 24 hours treatment.
In the case of `COc1ccc(-c2nnc(Nc3nc4c(OC)nccc4[nH]3)o2)cn1` [KD038, N-(4-Methoxy-1H-imidazo[4,5-c]pyridin-2-yl)-5-(6-methoxypyridin-3-yl)-1,3,4-oxadiazol-2-amine], the IC50 was determined as 7.6 µM. `COc1ccc(-c2nnc(Nc3nc4c(OC)nccc4[nH]3)o2)cc1F` [KD032, 5-(3-Fluoro-4-methoxyphenyl)-N-(4-methoxy-1H-imidazo[4,5-c]pyridin-2-yl)-1,3,4-oxadiazol-2-amine] returned an IC50 of 1.94 µM. Turning to `CN1CCN(c2cc3[nH]c(Nc4nnc(-c5ccc(F)cc5)o4)nc3cn2)CC1` [KD010, 5-(4-Fluorophenyl)-N-(6-(4-methylpiperazin-1-yl)-1H-imidazo[4,5-c]pyridin-2-yl)-1,3,4-oxadiazol-2-amine], the IC50 is greater than 100 µM. Compound `COc1nccc2[nH]c(Nc3nnc(-c4ccc(OC(F)(F)F)cc4)o3)nc12` [KD020, N-(4-methoxy-1H-imidazo[4,5-c]pyridin-2-yl)-5-(4-(trifluoromethoxy)phenyl)-1,3,4-oxadiazol-2-amine] registered an IC50 of 16.5 µM.

In the case of `COc1nccc2[nH]c(Nc3nnc(-c4ccc(OC5CC5)cc4)o3)nc12` [KD040, 5-(4-Cyclopropoxyphenyl)-N-(4-methoxy-1H-imidazo[4,5-c]pyridin-2-yl)-1,3,4-oxadiazol-2-amine], inhibition was half-maximal at 6.86 µM (IC50). With `CS(=O)(=O)C1CCN(c2cc3[nH]c(Nc4nnc(-c5ccc(F)cc5)o4)nc3cn2)CC1` [KD015, 5-(4-Fluorophenyl)-N-(6-(4-(methylsulfonyl)piperidin-1-yl)-1H-imidazo[4,5-c]pyridin-2-yl)-1,3,4-oxadiazol-2-amine], the IC50 is greater than 100 µM.

`COc1ccc2[nH]c(Nc3nnc(-c4ccc(F)cc4)o3)nc2n1` [KD003, 5-(4-Fluorophenyl)-N-(5-methoxy-1H-imidazo[4,5-b]pyridin-2-yl)-1,3,4-oxadiazol-2-amine] returned an IC50 of 8.16 µM. Still for that read-out and setting: next, `Fc1ccc(-c2nnc(Nc3nc4cnc(N5CCOCC5)cc4[nH]3)o2)cc1` [KD009, 5-(4-Fluorophenyl)-N-(6-morpholino-1H-imidazo[4,5-c]pyridin-2-yl)-1,3,4-oxadiazol-2-amine]: 15.4 µM; `Fc1ccc(-c2nnc(Nc3nc4cnc(Cl)cc4[nH]3)o2)cc1` [KD004, N-(6-Chloro-1H-imidazo[4,5-c]pyridin-2-yl)-5-(4-fluorophenyl)-1,3,4-oxadiazol-2-amine]: 40.3 µM; `COc1nccc2[nH]c(Nc3nnc(-c4ccc5c(c4)OCO5)o3)nc12` [KD026, N-(4-Methoxy-1H-imidazo[4,5-c]pyridin-2-yl)-5-(benzo[d][1,3]dioxol-5-yl)-1,3,4-oxadiazol-2-amine]: 2.72 µM. For `COc1nccc2[nH]c(Nc3nnc(-c4ccc(N(C)C)cc4)o3)nc12` [KD027, N-(4-Methoxy-1H-imidazo[4,5-c]pyridin-2-yl)-5-(4-(dimethylamino)phenyl)-1,3,4-oxadiazol-2-amine], half-maximal inhibition (IC50) required 2.83 µM. On the same count and under the same terms, the same measure for `Fc1ccc(-c2nnc(Nc3nc4cnc(C(F)(F)F)cc4[nH]3)o2)cc1` [KD005HCL, 5-(4-Fluorophenyl)-N-(6-(trifluoromethyl)-1H-imidazo[4,5-c]pyridin-2-yl)-1,3,4-oxadiazol-2-amine]: 16.1 µM.

The compound `COc1nccc2[nH]c(Nc3nnc(-c4ccc(C#N)cc4)o3)nc12` [KD031, 4-(5-((4-Methoxy-1H-imidazo[4,5-c]pyridin-2-yl)amino)-1,3,4-oxadiazol-2-yl) benzonitrile] showed a half-inhibitory concentration (IC50) of 3.7 µM. `COc1nccc2[nH]c(Nc3nnc(-c4ccc(OC(C)C)cc4)o3)nc12` [KD041, 5-(4-Isopropoxyphenyl)-N-(4-methoxy-1H-imidazo[4,5-c]pyridin-2-yl)-1,3,4-oxadiazol-2-amine] registered an IC50 of 22.6 µM. This IC50 is about 6.1-fold higher than that of the compound before. The compound `COc1cccc(-c2nccc3nc(Nc4nnc(-c5ccc(F)cc5)o4)[nH]c23)c1` [KD018, 5-(4-Fluorophenyl)-N-(4-(3-methoxyphenyl)-3H-imidazo[4,5-c]pyridin-2-yl)-1,3,4-oxadiazol-2-amine] yielded an IC50 of 72.7 µM. Take `COc1nccc2[nH]c(Nc3nnc(-c4ccc(C(C)(C)C)cc4)o3)nc12` [KD042, 5-(4-(tert-Butyl)phenyl)-N-(4-methoxy-1H-imidazo[4,5-c]pyridin-2-yl)-1,3,4-oxadiazol-2-amine]: the IC50 was greater than 100 µM. `Cc1cncc2nc(Nc3nnc(-c4ccc(F)cc4)o3)[nH]c12` [KD006TFA, 5-(4-Fluorophenyl)-N-(7-methyl-1H-imidazo[4,5-c]pyridin-2-yl)-1,3,4-oxadiazol-2-amine] had an IC50 of 23.8 µM.

Take `COc1ccc(-c2nnc(Nc3nc4ncccc4o3)o2)cc1` [KD029, N-(5-(4-Methoxyphenyl)-1,3,4-oxadiazol-2-yl)oxazolo[4,5-b]pyridin-2-amine]: half-maximal inhibition (IC50) was put at 6.1 µM. This IC50 lies about 3.9-fold lower than the previous one. Turning to `COc1nccc2[nH]c(Nc3nnc(-c4ccc(C(F)(F)F)cc4)o3)nc12` [KD019, N-(4-methoxy-1H-imidazo[4,5-c]pyridin-2-yl)-5-(4-(trifluoromethyl)phenyl)-1,3,4-oxadiazol-2-amine], the IC50 was 32.6 µM. `Fc1ccc(-c2nnc(Nc3nc4cnc(Cl)nc4[nH]3)o2)cc1` [KD013, N-(2-Chloro-9H-purin-8-yl)-5-(4-fluorophenyl)-1,3,4-oxadiazol-2-amine] had a 50% inhibitory concentration (IC50) of 37.6 µM. The IC50 values of the last two compounds are within 1.5-fold of each other. The compound `COc1nccc2[nH]c(Nc3nnc(-c4ccc(C)cc4)o3)nc12` [KD028, N-(4-methoxy-1H-imidazo[4,5-c]pyridin-2-yl)-5-(p-tolyl)-1,3,4-oxadiazol-2-amine] gave an IC50 of 9.12 µM. Take `COc1ccc2nc(Nc3nnc(-c4ccc(F)cc4)o3)sc2n1` [KD008, 5-(4-Fluorophenyl)-N-(5-methoxythiazolo[5,4-b]pyridin-2-yl)-1,3,4-oxadiazol-2-amine]: the IC50 was found to be 52.3 µM. The compound `Fc1ccc(-c2nnc(Nc3nc4cncc(N5CCOCC5)c4[nH]3)o2)cc1` [KD017, 5-(4-Fluorophenyl)-N-(7-morpholino-1H-imidazo[4,5-c]pyridin-2-yl)-1,3,4-oxadiazol-2-amine] had an IC50 of 16.3 µM.

Compound `Fc1ccc(-c2nnc(Nc3nc4ccnc(-c5ccc6c(c5)OCO6)c4[nH]3)o2)cc1` [KD030, N-(4-(Benzo[d][1,3]dioxol-5-yl)-3H-imidazo[4,5-c]pyridin-2-yl)-5-(4-fluorophenyl)-1,3,4-oxadiazol-2-amine] showed a concentration for half-maximal inhibition (IC50) of 19.9 µM. The compound `Fc1ccc(-c2nnc(Nc3nc4ccnc(N5CCOCC5)c4[nH]3)o2)cc1` [KD016, 5-(4-Fluorophenyl)-N-(4-morpholino-3H-imidazo[4,5-c]pyridin-2-yl)-1,3,4-oxadiazol-2-amine] came in with an IC50 of 10.2 µM.

(Values after US11447482B1, “Imidazopyridine and oxazolopyridine derivatives and analogs thereof, methods of preparation thereof, methods of HIF-2A pathway inhibition, and induction of ferroptosis” (KUDA Therapeutics, Inc., priority 2019, dated 2022).)
